Measured values taken from patent publication US20040038855A1 (priority 1999, published 2004).
Where a name gives a salt, the structure may show the parent alone. Read-outs that look alike come from different tables or passages of the source.

Experiments:
human α1B adrenoceptor = target: T1, human α1B adrenoceptor (Homo sapiens, UniProt P35368); assay: Binding affinity at the human α1B adrenergic receptor; conditions: Table 3d; read-out: hα1B Ki
T1 construct: expressed in transfected cells
T1 sequence (P35368 1-520): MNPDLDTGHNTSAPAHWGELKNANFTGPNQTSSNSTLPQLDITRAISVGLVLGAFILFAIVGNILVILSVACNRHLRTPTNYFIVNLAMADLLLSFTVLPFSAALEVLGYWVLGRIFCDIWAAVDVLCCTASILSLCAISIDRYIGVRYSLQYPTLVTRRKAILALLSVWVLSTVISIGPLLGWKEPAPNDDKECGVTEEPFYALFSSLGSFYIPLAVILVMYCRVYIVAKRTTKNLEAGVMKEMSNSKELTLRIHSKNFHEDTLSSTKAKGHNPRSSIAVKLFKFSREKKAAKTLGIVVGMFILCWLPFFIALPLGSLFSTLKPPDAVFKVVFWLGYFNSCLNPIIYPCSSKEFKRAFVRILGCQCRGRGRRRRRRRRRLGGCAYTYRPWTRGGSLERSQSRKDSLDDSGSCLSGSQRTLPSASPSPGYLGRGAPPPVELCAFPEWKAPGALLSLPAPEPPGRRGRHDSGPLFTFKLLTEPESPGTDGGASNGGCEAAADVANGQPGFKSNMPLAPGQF
Text: (§1) Other receptors: Cell membranes expressing human dopamine D1, D2, D4 and rat D3 receptors were purchased through BioSignal, Inc. (Montreal, Canada). Binding assays using the histamine H1 receptor; dopamine receptors; and α1A, α1B, and α2 adrenergic receptors may be carried out according to the procedures described in U.S. Pat. No. 5,780,485, the disclosure of which is hereby incorporated by reference in its entirety into this application. Binding assays using the dopamine D5 receptor may be carried out according to the procedures described in U.S. Pat. No. 5,882,855, the disclosure of which is hereby incorporated by reference in its entirety into this application. Binding assays for the human α1D adrenergic receptor may be carried out according to the procedures described in U.S. Pat. No. 6,156,518, the disclosure of which is hereby incorporated by reference in its entirety into this application.

[1] = target: T2, human Histamine H1 receptor (Homo sapiens, UniProt P35367); assay: Binding affinity at the human histamine H1 receptor
T2 construct: expressed in transfected cells
Method in brief: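 Receptor binding read-out throughout; membranes expressing human D1 or D2 receptor were used for those two targets.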

human 5HT1A receptor = target: T3, human 5HT1A receptor (Homo sapiens, UniProt P08908); assay: Binding affinity at the human 5HT1A receptor (3H8OHDPAT); conditions: Table 3e; read-out: h5HT1A Ki
T3 construct: The cDNA corresponding to the 5HT1A receptor open reading frames and variable noncoding 5′ and 3′regions; expressed in transfected cells; host or cells: COS7 cells, transient, DEAE-dextran, vector pCEXV3
T3 sequence (P08908 1-422): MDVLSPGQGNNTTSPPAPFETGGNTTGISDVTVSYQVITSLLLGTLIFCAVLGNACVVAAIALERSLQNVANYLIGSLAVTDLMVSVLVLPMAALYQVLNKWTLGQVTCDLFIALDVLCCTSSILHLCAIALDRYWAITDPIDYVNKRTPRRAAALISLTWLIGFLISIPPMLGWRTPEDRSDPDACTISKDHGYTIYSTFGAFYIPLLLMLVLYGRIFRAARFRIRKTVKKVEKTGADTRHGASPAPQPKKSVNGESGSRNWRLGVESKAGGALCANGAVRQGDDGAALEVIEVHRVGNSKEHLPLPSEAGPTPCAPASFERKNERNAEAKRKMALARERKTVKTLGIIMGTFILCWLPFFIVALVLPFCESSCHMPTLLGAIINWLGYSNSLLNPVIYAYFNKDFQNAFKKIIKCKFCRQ
Experimental: 5HT1A Receptor: The cDNA corresponding to the 5HT1A receptor open reading frames and variable noncoding 5′ and 3′regions, was cloned into the eukaryotic expression vector pCEXV3. These constructs were transfected transiently into COS7 cells by the DEAEdextran method (Cullen, 1987), and harvested after 72 hours. Radioligand binding assays were performed as described above for the 5HT2A receptor, except that ^3H8OHDPAT was used as the radioligand and nonspecific binding was determined by the addition of 10 μM mianserin.

[2] = target: T4, human α1D adrenergic receptor (Homo sapiens, UniProt P25100); assay: Binding affinity at the human α1D adrenergic receptor; conditions: Table 3d; read-out: hα1D Ki
T4 construct: expressed in transfected cells
T4 sequence (P25100 1-572): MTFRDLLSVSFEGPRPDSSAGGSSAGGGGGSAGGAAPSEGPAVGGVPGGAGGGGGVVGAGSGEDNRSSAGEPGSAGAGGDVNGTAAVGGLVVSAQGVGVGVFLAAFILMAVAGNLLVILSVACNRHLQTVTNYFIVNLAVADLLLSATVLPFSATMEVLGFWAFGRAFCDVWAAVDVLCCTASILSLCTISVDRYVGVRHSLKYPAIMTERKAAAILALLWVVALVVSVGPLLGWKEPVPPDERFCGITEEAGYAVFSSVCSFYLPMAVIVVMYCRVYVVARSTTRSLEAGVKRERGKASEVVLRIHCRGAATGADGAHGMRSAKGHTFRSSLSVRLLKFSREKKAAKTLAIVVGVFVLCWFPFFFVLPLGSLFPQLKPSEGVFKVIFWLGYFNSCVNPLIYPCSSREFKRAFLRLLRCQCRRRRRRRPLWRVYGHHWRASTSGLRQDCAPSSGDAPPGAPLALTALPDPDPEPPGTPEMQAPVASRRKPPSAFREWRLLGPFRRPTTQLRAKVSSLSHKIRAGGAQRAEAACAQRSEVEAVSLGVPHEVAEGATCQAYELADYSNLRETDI
Text: as §1

human α2C adrenoceptor = target: T5, human α2C adrenoceptor (Homo sapiens, UniProt P18825); assay: Binding affinity at the human α2C adrenergic receptor
T5 construct: expressed in transfected cells
T5 sequence (P18825 1-462): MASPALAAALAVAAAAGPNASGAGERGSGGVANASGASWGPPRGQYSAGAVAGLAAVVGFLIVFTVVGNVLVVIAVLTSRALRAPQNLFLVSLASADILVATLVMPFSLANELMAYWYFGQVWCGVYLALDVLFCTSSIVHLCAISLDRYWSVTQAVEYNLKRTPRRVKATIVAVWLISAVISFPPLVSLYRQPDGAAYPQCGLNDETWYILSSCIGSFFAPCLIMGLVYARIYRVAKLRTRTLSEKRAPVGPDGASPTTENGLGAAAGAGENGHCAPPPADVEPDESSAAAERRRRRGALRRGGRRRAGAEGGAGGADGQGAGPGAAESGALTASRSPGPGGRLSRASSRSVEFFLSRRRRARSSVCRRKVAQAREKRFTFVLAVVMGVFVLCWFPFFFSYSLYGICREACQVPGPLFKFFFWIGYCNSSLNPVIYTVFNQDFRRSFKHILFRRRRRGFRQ
Text: as §1

[3] = target: T6, human H2 histamine receptor (Homo sapiens, UniProt P25021); assay: Binding affinity at the human histamine H2 receptor
T6 construct: expressed in transfected cells
Text: Binding studies for the β-adrenoceptor may be performed according to the method of Riva and Creese, 1989. Binding assays for the remainder of the receptors may be carried out according to the procedures described in U.S. Pat. No. 5,780,485, the disclosure of which is hereby incorporated by reference in its entirety into this application.

T2 sequence (P35367 whole entry): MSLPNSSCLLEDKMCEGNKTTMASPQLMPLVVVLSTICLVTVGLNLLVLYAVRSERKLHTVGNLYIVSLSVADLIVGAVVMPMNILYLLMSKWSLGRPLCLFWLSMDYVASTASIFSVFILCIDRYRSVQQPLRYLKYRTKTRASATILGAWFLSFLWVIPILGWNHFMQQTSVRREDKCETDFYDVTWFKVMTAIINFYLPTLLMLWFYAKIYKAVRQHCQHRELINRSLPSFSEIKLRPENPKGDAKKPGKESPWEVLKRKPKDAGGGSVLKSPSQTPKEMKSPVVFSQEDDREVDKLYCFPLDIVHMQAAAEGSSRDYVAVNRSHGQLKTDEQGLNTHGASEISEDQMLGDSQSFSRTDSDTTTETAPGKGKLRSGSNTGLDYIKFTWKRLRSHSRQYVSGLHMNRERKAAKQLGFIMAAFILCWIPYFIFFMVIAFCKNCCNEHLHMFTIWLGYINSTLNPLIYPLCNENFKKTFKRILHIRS
T6 sequence (P25021 whole entry): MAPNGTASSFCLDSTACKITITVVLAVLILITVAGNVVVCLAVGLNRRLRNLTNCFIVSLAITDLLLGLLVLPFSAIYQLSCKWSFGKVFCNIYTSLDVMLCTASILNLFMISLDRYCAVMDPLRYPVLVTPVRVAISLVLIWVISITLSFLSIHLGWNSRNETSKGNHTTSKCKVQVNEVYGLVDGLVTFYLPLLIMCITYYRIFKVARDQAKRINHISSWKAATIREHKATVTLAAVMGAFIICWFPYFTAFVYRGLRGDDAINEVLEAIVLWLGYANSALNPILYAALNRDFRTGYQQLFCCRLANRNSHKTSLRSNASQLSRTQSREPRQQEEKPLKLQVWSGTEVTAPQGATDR

Compound | Ki (human α1B adrenoceptor) | Ki ([1]; Table 3e, read-out: hH1 Ki) | Ki (human 5HT1A receptor) | Ki [2] | Ki (human α2C adrenoceptor; Table 3d, read-out: hα2C Ki) | Ki [1] | Ki [3] | Ki (human α2C adrenoceptor) | Ki ([3]; Table 3e, * = >50000, read-out: hH2 Ki)
2-(3,4-DIFLUOROPHENYL)4,5-DIHYDROIMIDAZOLE-1-CARBOXYLIC ACID {3-[4-PHENYL-4-(4-BROMO-5-METHYLTHIOPNEN-2-YL)]-PROPYL}-AMIDE [Example 19] | 0.104 µM | 0.011 µM | 7.94 µM | 0.517 µM | 0.174 µM |  |  |  | 
COC(=O)C1=C(C)NC(=O)N(C(=O)NCCCN2CCC3(CC2)OCc2ccccc23)C1c1ccc2nonc2c1 (single isomer, unassigned) [Example 18, HYDROCHLORIDE] | 0.418 µM |  | 1.24 µM | 0.612 µM |  | 0.031 µM | 0.944 µM | 0.096 µM | 
COCC1=C(C(=O)OC)C(c2ccc(F)c(F)c2)N(C(=O)NCCCN2CCC(c3cccc(NC(C)=O)c3)CC2)C(=O)N1 (single isomer, unassigned; (-)) [Example 1, (−)-1,2,3,6-TETRAHYDRO-1-{N-[4-(3,-ACETAMIDO)-PHENYLPIPERIDIN-1-YL]PROPYL}CARBOXAMIDO-4-METHOXYMETHYL-6-(3,4-DIFLUORO-PHENYL)-2-OXOPYRIMIDINE-5-CARBOXYLIC ACID METHYL ESTER] | 9.03 µM |  |  | 1.31 µM |  |  |  |  | 
COCC1=C(C(=O)OC)[C@H](c2ccc(F)c(F)c2)N(C(=O)NCCCN2CCC(c3cccc(NC(C)=O)c3)CC2)C(=O)N1 [Example 10, (+)-1,2,3,6-TETRAHYDRO-1-{N-[4-(3,-ACETAMIDO)-PHENYLPIPERIDIN-1-YL]PROPYL}CARBOXAMIDO-4-METHOXYMETHYL-6-(3,4-DIFLUORO-PHENYL)-2-OXOPYRIMIDINE-5-CARBOXYLIC ACID METHYL ESTER] | 11.3 µM | 4.88 µM |  | 12.3 µM |  |  |  |  | > 50 µM
COC(=O)C1=C(C)NC(=O)N(C(=O)NCCCN2CCC3(CC2)OCc2ccccc23)C1c1ccc(F)c(F)c1 (centres unmarked) [Example 20, 4-(3,4-DIFLUORPHENYL)-6-METHYL-2-OXO-3-{[3-(4-SPIRO[ISOBENZOFURAN-1(3H),4′-PIPERIDINE]PROPYL}-1,2,3,4-TETRAHYDROPYRIMIDINE-5-CARBOXYLIC ACID METHYL ESTER] | 0.407 µM |  | 2.19 µM | 0.207 µM | 0.138 µM | 0.039 µM | 1.91 µM |  | 
